According to publication PMC10828691 (Heliyon, 2024):
Like-named read-outs stand apart in the source and are kept apart here.

What was measured:
[1] = target: human placental alkaline phosphatase (hPAP) (Homo sapiens, UniProt P05187); assay: Alkaline phosphatase inhibition assay; assay type: biochemical
[2] = test system: tissue nonspecific alkaline phosphatase (TNAP); settings: relative expression of control without drugs = 1.0

human placental alkaline phosphatase (hPAP), sequence (P05187 23-535): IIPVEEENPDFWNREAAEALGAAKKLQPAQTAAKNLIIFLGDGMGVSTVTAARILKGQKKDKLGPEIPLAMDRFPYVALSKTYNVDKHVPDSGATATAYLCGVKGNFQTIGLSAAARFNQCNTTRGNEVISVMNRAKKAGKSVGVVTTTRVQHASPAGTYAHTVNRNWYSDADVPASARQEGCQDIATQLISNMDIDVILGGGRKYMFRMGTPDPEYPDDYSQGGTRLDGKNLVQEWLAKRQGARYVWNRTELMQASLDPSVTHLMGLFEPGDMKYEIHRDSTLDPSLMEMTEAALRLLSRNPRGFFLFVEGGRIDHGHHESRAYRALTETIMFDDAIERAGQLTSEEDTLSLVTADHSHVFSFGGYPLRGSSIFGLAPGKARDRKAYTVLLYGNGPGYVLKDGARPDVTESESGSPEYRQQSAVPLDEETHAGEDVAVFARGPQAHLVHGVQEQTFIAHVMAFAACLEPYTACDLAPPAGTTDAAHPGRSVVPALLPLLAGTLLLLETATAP

SMILES	IC50 [1]	TNAP Down-regulation ([2]; MCF-7, 5 μM)	TNAP Down-regulation ([2]; MCF-7, 10 μM)
CC(C)(O)c1ccccc1CC[C@@H](SCC1(CC(=O)O)CC1)c1cccc(/C=C/c2ccc3ccc(Cl)cc3n2)c1 [Montelukast, (R,E)-2-(1-(((1-(3-(2-(7-chloroquinolin-2-yl)vinyl)phenyl)-3-(2-(2-hydroxypropan-2-yl)phenyl)propyl)thio)methyl)cyclopropyl) acetic acid]	17.5 ± 0.19 µM	0.27 fold	
c1ccc([C@H]2CN3CCSC3=N2)cc1 [Levamisole]			0.26 fold
